In PubChem BioAssay AID1963828 (Molecular Pharmacology Branch, DTP, NCI, 2024):

System: 991263-137-R1-J2-PDC complex spheroid viability
Experiment: Anticancer human tumor 991263-137-R1-J2-PDC patient-derived colon adenocarcinoma cell line growth inhibition [POLQ]
Details: for IC50: curve of first compound; for viability, T/C: stronger effect = lower value
Procedure, shortened: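 Growth inhibition in 3D: complex spheroids (tumor PDC, HUVEC, MSC) treated with POLQ inhibitor combinations; where Cmax unknown, highest tested concentration 10 microM, except SN-38 at 1 microM.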

[1] = second compound 0.0316 µM, first compound 0.0316 µM
[2] = second compound 0.0316 µM, first compound 0.1 µM
[3] = second compound 0.0316 µM, first compound 0.316 µM
[4] = second compound 0.0316 µM, first compound 1 µM
[5] = second compound 0.0316 µM, first compound 3.16 µM
[6] = second compound 0.0316 µM, first compound 10 µM
[7] = second compound 0.1 µM, first compound 0.0316 µM
[8] = second compound 0.1 µM, first compound 0.1 µM
[9] = second compound 0.1 µM, first compound 0.316 µM
[10] = second compound 0.1 µM, first compound 1 µM
[11] = second compound 0.1 µM, first compound 3.16 µM
[12] = second compound 0.1 µM, first compound 10 µM
[13] = second compound 0.316 µM, first compound 0.0316 µM
[14] = second compound 0.316 µM, first compound 0.1 µM
[15] = second compound 0.316 µM, first compound 0.316 µM
[16] = second compound 0.316 µM, first compound 1 µM
[17] = second compound 0.316 µM, first compound 3.16 µM
[18] = second compound 0.316 µM, first compound 10 µM
[19] = second compound 1 µM, first compound 0.0316 µM
[20] = second compound 1 µM, first compound 0.1 µM
[21] = second compound 1 µM, first compound 0.316 µM
[22] = second compound 1 µM, first compound 1 µM
[23] = second compound 1 µM, first compound 3.16 µM
[24] = second compound 1 µM, first compound 10 µM
[25] = second compound 3.16 µM, first compound 0.0316 µM
[26] = second compound 3.16 µM, first compound 0.1 µM
[27] = second compound 3.16 µM, first compound 0.316 µM
[28] = second compound 3.16 µM, first compound 1 µM
[29] = second compound 3.16 µM, first compound 3.16 µM
[30] = second compound 3.16 µM, first compound 10 µM
[31] = second compound 10 µM, first compound 0.0316 µM
[32] = second compound 10 µM, first compound 0.1 µM
[33] = second compound 10 µM, first compound 0.316 µM
[34] = second compound 10 µM, first compound 1 µM
[35] = second compound 10 µM, first compound 3.16 µM
[36] = second compound 10 µM, first compound 10 µM
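Also: spheroids exposed to compounds for 7 days before readout.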
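For viability, T/C in this document: 100% = DMSO vehicle control viability.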

In the case of `C=CC(=O)N1CCN(c2nc(=O)n(-c3c(C)ccnc3C(C)C)c3nc(-c4c(O)cccc4F)c(F)cc23)C(C)C1` (stereo not drawn) + Nc1ccc(C#CCN(C(=O)Cc2ncc(C(F)(F)F)cc2C(F)(F)F)c2ccc(F)cc2)nn1, the IC50 (second compound 0.0316 µM) is reported as > 10 µM, the IC50 (second compound 0.1 µM) is reported as > 10 µM and the IC50 (second compound 0.316 µM) is reported as > 10 µM. The IC50 (second compound 1 µM) was > 10 µM, the IC50 (second compound 3.16 µM) was > 10 µM and the IC50 (second compound 10 µM) was > 10 µM. For the same molecule, the viability, T/C [1] was 108%, the viability, T/C [2] was 100% and the viability, T/C [3] was 99.3%. It also gave a viability, T/C [4] of 96.5%, a viability, T/C [5] of 109% and a viability, T/C [6] of 116%. The viability, T/C [7] was 102%, the viability, T/C [8] was 104% and the viability, T/C [9] was 114%. It also gave a viability, T/C [10] of 98%, a viability, T/C [11] of 117% and a viability, T/C [12] of 105%. It also gave a viability, T/C [13] of 104%, a viability, T/C [14] of 105% and a viability, T/C [15] of 102%. For the same molecule, the viability, T/C [16] was 96.7%, the viability, T/C [17] was 113% and the viability, T/C [18] was 106%. The viability, T/C [19] was 110%, the viability, T/C [20] was 105% and the viability, T/C [21] was 107%. For the same molecule, the viability, T/C [22] was 97.7%, the viability, T/C [23] was 107% and the viability, T/C [24] was 100%. It also gave a viability, T/C [25] of 94.5%, a viability, T/C [26] of 85.6% and a viability, T/C [27] of 102%. For the same molecule, the viability, T/C [28] was 102%, the viability, T/C [29] was 106% and the viability, T/C [30] was 110%. It also gave a viability, T/C [31] of 96.6%, a viability, T/C [32] of 107% and a viability, T/C [33] of 90.6%. For the same molecule, the viability, T/C [34] was 117%, the viability, T/C [35] was 99.8% and the viability, T/C [36] was 100%.

For `CC1COCCN1c1cc(C2(S(C)(=N)=O)CC2)nc(-c2ccnc3[nH]ccc23)n1` (stereo not drawn) + Nc1ccc(C#CCN(C(=O)Cc2ncc(C(F)(F)F)cc2C(F)(F)F)c2ccc(F)cc2)nn1, the IC50 (second compound 0.0316 µM) was > 10 µM, the IC50 (second compound 0.1 µM) was > 10 µM and the IC50 (second compound 0.316 µM) was > 10 µM. For the same molecule, the IC50 (second compound 1 µM) was > 10 µM, the IC50 (second compound 3.16 µM) was > 10 µM and the IC50 (second compound 10 µM) was > 10 µM. It also gave a viability, T/C [1] of 100%, a viability, T/C [2] of 104% and a viability, T/C [3] of 108%. For the same molecule, the viability, T/C [4] was 109%, the viability, T/C [5] was 97.5% and the viability, T/C [6] was 86%. The viability, T/C [7] was 114%, the viability, T/C [8] was 110% and the viability, T/C [9] was 93.9%. For the same molecule, the viability, T/C [10] was 105%, the viability, T/C [11] was 108% and the viability, T/C [12] was 97.2%. For the same molecule, the viability, T/C [13] was 97.7%, the viability, T/C [14] was 103% and the viability, T/C [15] was 110%. The viability, T/C [16] was 103%, the viability, T/C [17] was 108% and the viability, T/C [18] was 89.2%. It also gave a viability, T/C [19] of 119%, a viability, T/C [20] of 109% and a viability, T/C [21] of 106%. The viability, T/C [22] was 106%, the viability, T/C [23] was 104% and the viability, T/C [24] was 85.1%. The viability, T/C [25] was 101%, the viability, T/C [26] was 102% and the viability, T/C [27] was 102%. For the same molecule, the viability, T/C [28] was 97.5%, the viability, T/C [29] was 101% and the viability, T/C [30] was 83.9%. It also gave a viability, T/C [31] of 109%, a viability, T/C [32] of 106% and a viability, T/C [33] of 115%. The viability, T/C [34] was 99.5%, the viability, T/C [35] was 93.4% and the viability, T/C [36] was 63.6%.

With `CCc1cc2c(N3CCc4c(cc(Cn5ccnc5)cc4-c4cn(C)nc4C(F)(F)F)C3=O)ccnc2c(OC)n1` + Nc1ccc(C#CCN(C(=O)Cc2ncc(C(F)(F)F)cc2C(F)(F)F)c2ccc(F)cc2)nn1 the IC50 (second compound 0.0316 µM) was > 10 µM, the IC50 (second compound 0.1 µM) was > 10 µM and the IC50 (second compound 0.316 µM) was > 10 µM. The IC50 (second compound 1 µM) was > 10 µM, the IC50 (second compound 3.16 µM) was > 10 µM and the IC50 (second compound 10 µM) was > 10 µM. The viability, T/C [1] was 118%, the viability, T/C [2] was 109% and the viability, T/C [3] was 101%. The viability, T/C [4] was 92.2%, the viability, T/C [5] was 91.5% and the viability, T/C [6] was 88.7%. The viability, T/C [7] was 97.1%, the viability, T/C [8] was 103% and the viability, T/C [9] was 108%. For the same molecule, the viability, T/C [10] was 101%, the viability, T/C [11] was 96% and the viability, T/C [12] was 90.2%. The viability, T/C [13] was 107%, the viability, T/C [14] was 99.8% and the viability, T/C [15] was 106%. For the same molecule, the viability, T/C [16] was 111%, the viability, T/C [17] was 103% and the viability, T/C [18] was 79.3%. For the same molecule, the viability, T/C [19] was 95.1%, the viability, T/C [20] was 107% and the viability, T/C [21] was 108%. It also gave a viability, T/C [22] of 91.9%, a viability, T/C [23] of 97.4% and a viability, T/C [24] of 95.7%. The viability, T/C [25] was 116%, the viability, T/C [26] was 112% and the viability, T/C [27] was 87%. The viability, T/C [28] was 101%, the viability, T/C [29] was 95.3% and the viability, T/C [30] was 89.6%. For the same molecule, the viability, T/C [31] was 95.1%, the viability, T/C [32] was 102% and the viability, T/C [33] was 107%. It also gave a viability, T/C [34] of 89.8%, a viability, T/C [35] of 86.4% and a viability, T/C [36] of 82.9%.

`COc1cccc(OCCCN)c1-c1cc(Nc2cnc(C#N)cn2)n[nH]1` + Nc1ccc(C#CCN(C(=O)Cc2ncc(C(F)(F)F)cc2C(F)(F)F)c2ccc(F)cc2)nn1 gave an IC50 (second compound 0.0316 µM) of 0.718 µM, an IC50 (second compound 0.1 µM) of 0.587 µM and an IC50 (second compound 0.316 µM) of 0.666 µM. It also gave an IC50 (second compound 1 µM) of 0.728 µM, an IC50 (second compound 3.16 µM) of 0.425 µM and an IC50 (second compound 10 µM) of 0.0874 µM. The viability, T/C (second compound 0.0316 µM, first compound 0.00316 µM) was 114%, the viability, T/C (second compound 0.0316 µM, first compound 0.01 µM) was 89.4% and the viability, T/C [1] was 105%. The viability, T/C [2] was 83.4%, the viability, T/C [3] was 55.9% and the viability, T/C [4] was 47.5%. The viability, T/C (second compound 0.1 µM, first compound 0.00316 µM) was 104%, the viability, T/C (second compound 0.1 µM, first compound 0.01 µM) was 105% and the viability, T/C [7] was 100%. It also gave a viability, T/C [8] of 82.8%, a viability, T/C [9] of 57.8% and a viability, T/C [10] of 43.5%. It also gave a viability, T/C (second compound 0.316 µM, first compound 0.00316 µM) of 102%, a viability, T/C (second compound 0.316 µM, first compound 0.01 µM) of 106% and a viability, T/C [13] of 103%. It also gave a viability, T/C [14] of 85.1%, a viability, T/C [15] of 67.9% and a viability, T/C [16] of 40.7%. For the same molecule, the viability, T/C (second compound 1 µM, first compound 0.00316 µM) was 106%, the viability, T/C (second compound 1 µM, first compound 0.01 µM) was 95.2% and the viability, T/C [19] was 89.4%. The viability, T/C [20] was 80.9%, the viability, T/C [21] was 70.5% and the viability, T/C [22] was 42%. It also gave a viability, T/C (second compound 3.16 µM, first compound 0.00316 µM) of 102%, a viability, T/C (second compound 3.16 µM, first compound 0.01 µM) of 93.2% and a viability, T/C [25] of 83.4%. It also gave a viability, T/C [26] of 70.4%, a viability, T/C [27] of 51.5% and a viability, T/C [28] of 41.4%. The viability, T/C (second compound 10 µM, first compound 0.00316 µM) was 93.3%, the viability, T/C (second compound 10 µM, first compound 0.01 µM) was 96.5% and the viability, T/C [31] was 73%. The viability, T/C [32] was 46.8%, the viability, T/C [33] was 49.9% and the viability, T/C [34] was 44.2%.
